Laboratory results as given in patent US8552041B2, “Therapeutic approaches for treating alzheimer disease and related disorders through a modulation of cell stress response” (Pharnext, priority 2008, dated 2013).

B1: BDNF: Brain-derived neurotrophic factor, positive (neuroprotective) control (protein, UniProt P23560 19-247, looked up)
Neurotrophic factor BDNF …: APMKEANIRGQGGLAYPGVRTHGTLESVNGPKAGSRGLTSLADTFEHVIEELLDEDQKVRPNEENNKDADLYTSRVMLSSQVPLEPPLLFLLEEYKNYLDAANMSMRVRRHSDPARRGELSVCDSISEWVTAADKKTAVDMSGGTVTVLEKVPVSKGQLKQYFYETKCNPMGYTKEGCRGIDKRHWNSQCRTTQSYVRALTMDSKKRIGWRFIRIDTSCVCTLTIKRGR

What was measured:
[1] = test system: rat primary cortical neuron culture; assay: LDH release in Aβ25-35 intoxicated rat primary cortical neuron culture; format: cell-based; details: Aβ25-35 20 μM, 2 days; drug pre-incubated 1 h; FIG. 2
Experimental: Primary rat cortical neurons are cultured as described by Singer et al., 1999. Briefly pregnant female rats of 15 days gestation are killed by cervical dislocation (Rats Wistar; Janvier) and the foetuses removed from the uterus. The cortex are removed and placed in ice-cold medium of Leibovitz (L15; Invitrogen) containing 1% of Penicillin-Streptomycin (PS; Invitrogen) and 1% of bovine serum albumin (BSA; Sigma). Cortex are dissociated by trypsinisation for 20 min at 37° C. (Trypsin EDTA 1×; Invitrogen) diluted in PBS without calcium and magnesium. The reaction is stopped by the addition of Dulbecco's modified Eagle's medium (DMEM; Invitrogen) containing DNAase I grade II (0.1 mg/ml; Roche Diagnostic) and 10% of foetal calf serum (FCS; Invitrogen). Cells are then mechanically dissociated by 3 passages through a 10 ml pipette. Cells are then centrifuged at 180×g for 10 min at 10° C. The supernatant is discarded and the cells of pellet are re-suspended in a defined culture medium consisting of Neurobasal (Invitrogen) supplemented with B27 (2%; Invitrogen), L-glutamine (0.2 mM; Invitrogen), 1% of PS solution and 10 ng/ml of Brain-derived neurotrophic factor (BDNF, Pan Biotech). Viable cells are counted in a Neubauer cytometer using the trypan blue exclusion test. Cells are seeded at a density of 30 000 cells/well in 96 well-plates (wells are pre-coated with poly-L-lysine (10 ng/ml; Sigma)) and are cultured at 37° C. in a humidified air (95%)/CO2 (5%) atmosphere.
After 6 days of culture, cells are incubated with drugs (5 concentrations). After 1 hour, cells are intoxicated by 20 μM of β-amyloid (25-35; Sigma) in defined medium without BDNF but together with drugs. Cortical neurons are intoxicated for 2 days. BDNF (10 ng/ml) is used as a positive (neuroprotective) control.
After 2 days of culture, the supernatant is collected and analyzed with Cytotoxicity Detection Kit (LDH, Roche Applied Sciences). This colorimetric assay for the quantification of cell death is based on the measurement of lactate dehydrogenase (LDH) activity released from the cytosol of damaged cells into the supernatant. The optic density (DO) is assessed by spectrophotometer at 492 nm wavelength by a multiscan apparatus (Thermo, Ref Ascent). Results are expressed in percentage of cell viability, compared to the negative control (vehicle).
Results presented in FIGS. 1 and 2 are extracted from two independent cultures, 6 wells per condition. All values are expressed as mean±s.e.mean. A bilateral Student's t test analysis is performed on raw data. […]
Rat primary cortical neurons are incubated with drugs one hour before Aβ25-35 20 μM intoxication that lasts 2 days. Two days after this incubation, LDH release in the culture medium is quantified, reflecting the level of cell death.

[2] = test system: Human Brain Microvascular Endothelial Cells (HBMEC); assay: Capillary network length in human Aβ1-42 intoxicated HBMEC on matrigel; format: cell-based; details: for Effect on intoxication, total length of capillary network in beta-amyloid intoxicated HBMEC cultures: Aβ1-42 2.5 μM, combination versus each drug alone at the same concentrations, FIGS. 5 and 6
Experimental: Human brain microvascular endothelial cerebral cells (HBMEC, ScienCell Ref: 1000, frozen at passage 10) were rapidly thawed in a waterbath at +37° C. The supernatant was immediately put in 9 ml Dulbecco's modified Eagle's medium (DMEM; Pan Biotech ref: P04-03600) containing 10% of foetal calf serum (FCS; GIBCO ref 10270-106). Cell suspension was centrifuged at 180×g for 10 min at +4° C. and the pellets were suspended in CSC serum-free medium (CSC serum free, Cell System, Ref: SF-4Z0-500-R, Batch 51407-4) with 1.6% of Serum free RocketFuel (Cell System, Ref: SF-4Z0-500-R, Batch 54102), 2% of Penicillin 10.000 U/ml and Streptomycin 10 mg/ml (PS; Pan Biotech ref: P06-07100 batch 133080808) and were seeded at the density of 20 000 cells per well in 96 well-plates (matrigel layer biocoat angiogenesis system, BD, Ref 354150, Batch A8662) in a final volume of 100 μl. On matrigel support, endothelial cerebral cells spontaneously started the process of capillary network morphogenesis (54).
Three separate cultures were performed per condition, 6 wells per condition.
Briefly, Aβ1-42 peptide (Bachem, ref: H1368 batch 1010533) was reconstituted in define culture medium at 20 μM (mother solution) and was slowly shacked at +37° C. for 3 days in. The control medium was prepared in the same conditions.
After 3 days, this human amyloid peptide was used on HBMEC at 2.5 μM diluted in control medium (optimal incubation time). The Aβ1-42 peptide was added 2 hours after HBMEC seeding on matrigel for 18 hours incubation.
One hour after HBMEC seeding on matrigel, test compounds and VEGF-165 were solved in culture medium (+0.1% DMSO) and then pre-incubated with HBMEC for 1 hour before the Aβ1-42 application (in a final volume per culture well of 100 μl).
VEGF-165, known to be a pro-angiogenic isoform of VEGF-A, was used for all experiments in this study as reference compound.
The following conditions were assessed: • Negative Control: medium alone+0.1% DMSO • Intoxication: amyloid-β1-42 (2.5 μM) for 18 h • Positive control: VEGF-165 (10 nM) (1 reference compound/culture) 1 hr before the Aβ1-42 (2.5 μM) addition for a 18 h incubation time. • Test compounds: Test compound I hr before the Aβ1-42 (2.5 μM) addition for a 18 h incubation time. Capillary Network Quantification
Per well, 2 pictures with 4× lens were taken using InCell Analyzer™ 1000 (GE Healthcare) in light transmission. All images were taken in the same conditions. Analysis of the angiogenesis networks was done using Developer software (GE Healthcare). The total length of capillary network was assessed.
All values are expressed as mean±s.e.mean of the 3 cultures (n=6 per condition). […] Indeed, the amyloid toxicity was taken as the 100% and the test compound effect was calculated as a % of this amyloid toxicity. […]

NGF-differentiated PC12 = assay: MTT viability of NGF-differentiated PC12 cells after Abeta25-35 intoxication; format: cell-based, Rat; details: Abeta25-35 10 μM, 24 h; drug pre-incubated 1 h; FIG. 1
Experimental: PC12 (Pheochromocytoma Rat, ATCC ref: CRL-1721) cells from [NT] CRL-1721) were rapidly thawed in 37° C. water. The supernatant was immediately put in 9 ml of a “PC12 proliferation medium” containing Dulbecco's modified Eagle's medium DMEM-F12 (Pan Biotech ref: P04-41450) with 15% heat-inactivated horse serum (Invitrogen ref: 16050-130), 2.5% of fetal bovine serum (FBS; Invitrogen ref: 16000-036), 1% of Penicillin 10.000 U/ml and Streptomycin 10 mg/ml (PS; Pan Biotech ref: P06-07100) and 1% de L-glutamine 200 mM (Pan Biotech ref: P04-80100). Cells were centrifuged (800 rounds/min, 4° C. for 5 min) and added in 5 ml “PC12 proliferation medium”, viable cells were counted with a Malassez cell using the neutral red exclusion test (Sigma). Then the cells were seeded at 3·10^4 cells per cm^2 in “PC12 proliferation medium” in 75 cm^2 plastic flasks (Greiner Ref: 658175) precoated with poly-L-lysine (10 μg/ml, Sigma Ref: P2636). Medium was changed every other day. After 3 days of culture, when cells reached 80% of confluence, they were washed in HBSS without calcium and magnesium (Pan Biotech Ref: P06-33500) and incubated in trypsin EDTA, (0.05%, Pan Biotech Ref: P10-023100). The enzymatic reaction was stopped with PC12 proliferation medium added by 0.5 mg/ml of DNAse 1 grade 2 (Pan Biotech Ref: T60-37780100). […]

[3] = test system: rat primary cortical neuron cells; assay: LDH release in human Aβ1-42 intoxicated rat primary cortical neuron culture; format: cell-based; details: human Aβ1-42 10 μM, 24 h; 1 hr pre-treatment; FIG. 4
Experimental: Primary rat cortical neurons are cultured as described previously.
The control medium was prepared in the same conditions.
Cortical neurons were intoxicated for 24 hours. Three separate cultures were performed per condition, 6 wells per condition.
This colorimetric assay for the quantification of cell toxicity is based on the measurement of lactate dehydrogenase (LDH) activity released from the cytosol of dying cells into the supernatant.
All values are expressed as mean±s.e.mean of the 3 cultures (n=6 per condition).

| Molecule | Prevention of Aβ25-35 intoxication, LDH release in rat primary cortical neurons [1] | Effect on intoxication, total length of capillary network in beta-amyloid intoxicated HBMEC cultures [2] | also measured |
| --- | --- | --- | --- |
| Cc1oncc1C(=O)Nc1ccc(C(F)(F)F)cc1 [Leflunomide] | significantly prevented |  |  |
| C[C@@H]1CC(=O)NN=C1c1ccc(NN=C(C#N)C#N)cc1 [Levosimendan] |  | no significant effect |  |
| CCCNC(C)C(=O)Nc1ccccc1C (centres unmarked) [Prilocaln, Prilocaine] |  |  | Prevention of Abeta25-35 intoxication, viability of NGF-differentiated PC12 (MTT) (NGF-differentiated PC12): significantly prevented |
| Cc1noc(NS(=O)(=O)c2ccc(N)cc2)c1C [Sulfisoxazole] | significantly prevented | no significant effect | Prevention of human Aβ1-42 injury in HBMEC (capillary network), single drug ([2]; human Aβ1-42 2.5 μM, 18 h, 1 hr pre-treatment, FIG. 3B): significantly prevented |
| CN1CC(=O)N2[C@H](c3ccc4c(c3)OCO4)c3[nH]c4ccccc4c3C[C@@H]2C1=O [Tadalafil] |  |  | LDH release compared to amyloid intoxication [3]: −57% |
| CN(C/C=C/C#CC(C)(C)C)Cc1cccc2ccccc12 [Terbinafine] |  | no significant effect |  |
| NS(=O)(=O)Cc1noc2ccccc12 [Zonisamide] | significantly prevented |  |  |
| B1 | efficiently prevented |  | LDH release compared to amyloid intoxication [3]: −95% |
